Reference: patent publication US6340670B1, “Acetal benzylmaltosides as inhibitors of smooth muscle cell proliferation” (American Home Products Corporation, priority 1998, dated 2002)

system: Porcine Smooth Muscle Cell; assay: Effects of Compounds on Cell Proliferation Using 3H Thymidine Incorporation; type: cell-based; settings: @ 50 μM, control (100%) = maximally stimulated cells
Procedure: Effects of Compounds on Cell Proliferation Using ^3H Thymidine Incorporation
Human and porcine smooth muscle cells were tested in early passage (generally passage 3-7) at sub-confluent conditions. Cultures were grown in 16 mm (24 well) multi-well culture dishes in medium 199 supplemented with 10% fetal bovine serum and 2% antibiotic/antimycotic. At sub-confluence, the cells were placed in a defined serum free medium (AIM-V; Gibco) for 24-48 h prior to initiating the experimental protocol.
Compounds were added to each well at 50 fold dilution (20 μL/well) and the plates were incubated for 24-36 h at 37° C. in 5% CO2. Compounds were initially dissolved in 50% ethanol and serially diluted into media. Compounds were routinely evaluated at concentrations from 1 to 100 μM. As a control, grade II porcine intestinal mucosal heparin (sodium salt) was routinely evaluated in all cell preparations at concentrations from 0.1 to 100 μg/mL.
At the completion of the test procedure, plates were placed on ice, washed three times with ice cold phosphate buffered saline (PBS) and incubated in ice cold 10% trichloroacetic acid (TCA) got 30 min to remove acid soluble proteins. Solution was transferred to scintillation vials containing 0.4 N HCl (500 μL/vial to neutralize NaOH) and each well was rinsed two times with water (500 μL) for a total volume of 2 mL/vial.
Data was obtained, in triplicate, for both control and experimental samples. Control (100%) data was obtained from maximally stimulated cells, as the result of growth factor or serum stimulation. Experimental data was obtained from cells maximally stimulated with growth factor or serum and treated with compound. Data are expressed as an IC50 or percent inhibition in Table I below.

Row | Molecule | Porcine Smooth Muscle Cell Antiproliferation, percent inhibition [% @ 50]
1 | CCOCC[C@@H]1OC[C@H]2O[C@H](O[C@H]3[C@H](O)[C@@H](O)[C@H](OCc4ccc(Cl)c(NC(C)=O)c4)O[C@@H]3CO)[C@H](O)[C@@H](O)[C@@H]2O1 [Example 20, N-{2-Chloro-5-[(4′,6′-O-((1R)-3-ethoxy-propylidene)-β-D-maltosyloxy)-methyl]-phenyl}-acetamide] | 48

same assay, conditions: @ 100 μM, control (100%) = maximally stimulated cells

Row | Molecule | Porcine Smooth Muscle Cell Antiproliferation, percent inhibition [% @ 100]
2 | CC(=O)Nc1cc(COC2OC(CO)C(OC3OC4COC(C)OC4C(O)C3O)C(O)C2O)ccc1Cl [Example 1, N-{2-Chloro-5-[(4′,6′-O-ethylidene)-β-D-maltosyloxymethyl]-phenyl}-acetamide] | 32

same assay, conditions: serum/growth factor stimulated cells, 24-36 h incubation, read-out: Porcine Smooth Muscle Cell Antiproliferation IC50

Row | Molecule | IC50 [nM]
3 | CC(=O)Nc1cc(COC2OC(CO)C(OC3OC4COC(Cc5ccccc5)OC4C(O)C3O)C(O)C2O)ccc1Cl [Example 16, N-{5-[(4′,6′-O-((1R)-2-Phenyl-ethylidene)-β-D-maltosyloxy)-methyl]-2-chloro-phenyl}-acetamide] | 16300
4 | CC(=O)Nc1cc(COC2OC(COC(=O)c3ccccc3)C(OC3OC4COC(C)OC4C(OC(C)=O)C3OC(C)=O)C(OC(C)=O)C2OC(C)=O)ccc1Cl [Example 3, (R)-N-[2-Chloro-5-[[[2,3-di-O-acetyl-6-O-benzoyl-4-O-(2,3-di-O-acetyl-4,6-O-ethylidene-α-D-glucopyranosyl)-β-D-glucopyranosyl]oxy]methyl]phenyl]acetamide] | 2920
5 | CC(=O)Nc1cc(COC2OC(COC(=O)c3ccccc3)C(OC3OC4COC(C(C)C)OC4C(O)C3O)C(O)C2O)ccc1Cl [Example 15, N-{5-[(6-O-Benzoyl-4′,6′-O-isobutylidene-β-D-maltosyl)-oxy-methyl]-2-chloro-phenyl}-acetamide] | 3
6 | O=[N+]([O-])c1cc(CSC2OC(CO)C(OC3OC4COC(c5ccccc5)OC4C(O)C3O)C(O)C2O)ccc1Cl (centres unmarked) [Example 86, 6-[-6-(4-Chloro-3-nitro-benzylsulfanyl)-4,5-dihydroxy-2-hydroxymethyl-tetrahydro-pyran-3-yloxy]-2-phenyl-hexahydro-pyrano[3,2-d][1.3]dioxine-7.8-diol] | 16300
7 | O=C(OCC1OC(OCc2ccc(Cl)c(NC(=O)c3ccco3)c2)C(O)C(O)C1OC1OC2COC(c3ccccc3)OC2C(O)C1O)c1ccccc1 [Example 64, Furan-2-carboxylic acid {5-[(6-O-benzoyl-4′,6′-O-benzylidene-β-D-maltosyl)-oxy-methyl]-2-chloro-phenyl}-amide] | 50
8 | N-{5-[(6-O-(3-Benzyl-1-oxo-propyl)-4′,6′-O-benzylidene-β-D-maltosyl)-oxy-methyl]-2-chloro-phenyl}-carbamic acid methyl ester [Example 82] | 352
9 | COC(=O)Nc1cc(COC2OC(COC(=O)c3ccccc3)C(OC3OC4COC(c5ccccc5)OC4C(O)C3O)C(O)C2O)ccc1Cl [Example 81, N-{5-[(6-O-Benzoyl-4′,6′-O-benzylidene-β-D-maltosyl)-oxy-methyl]-2-chloro-phenyl}-carbamic acid methyl ester] | 14
10 | CC(=O)N(C)c1cc(COC2OC(COC(=O)c3ccccc3)C(OC3OC4COC(c5ccccc5)OC4C(O)C3O)C(O)C2O)ccc1Cl [Example 79, N-{5-[(6-O-Benzoyl-4′,6′-O-benzylidene-β-D-maltosyl)-oxymethyl]-2-chloro-phenyl}-N-methyl-acetamide] | 2360
11 | O=C(Nc1cc(CO[C@@H]2O[C@H](CO)[C@@H](O[C@H]3O[C@@H]4COC(c5ccccc5)O[C@H]4[C@H](O)[C@H]3O)[C@H](O)[C@H]2O)ccc1Cl)c1ccco1 (stereo partly drawn) [Example 63, Furan-2-carboxylic acid {5-[(4′,6′-O-benzylidene-β-D-maltosyl)-oxy-methyl]-2-chloro-phenyl}-amide] | 7730
12 | O=[N+]([O-])c1cc(COC2OC(CO)C(OC3OC4COC(c5ccccc5)OC4C(O)C3O)C(O)C2O)ccc1Cl [Example 29, 4-Chloro-3-nitro-benzyl-4′,6′-O-benyzlidene-β-D-maltoside] | 44100
13 | CC(=O)Nc1cc(CO[C@@H]2O[C@H](COC(=O)c3ccccc3)[C@@H](O[C@@H]3O[C@@H]4CO[C@@H](c5ccccc5)O[C@H]4[C@H](OC(C)=O)[C@H]3OC(C)=O)[C@H](OC(C)=O)[C@H]2OC(C)=O)ccc1Cl [Example 27, (R)-N-[2-Chloro-5-[[[2,3-di-O-acetyl-6-O-benzoyl-4-O-[2,3-di-O-acetyl-4,6-O-(phenylmethylene)-β-D-glucopyranoysl]-β-D-glucopyranosyl]oxy]-methyl]-phenyl]acetamide] | 70
14 | CC(=O)Nc1cc(COC2OC(COC(=O)c3ccccc3I)C(OC3OC4COC(c5ccccc5)OC4C(O)C3O)C(O)C2O)ccc1Cl [Example 43, N-{5-[(4′,6′-O-Benzylidene-6-O-(2-iodo)-benzoyl-β-D-maltosyl)-oxy-methyl]-2-chloro-phenyl)-acetamide] | 8
15 | CC(=O)Nc1cc(COC2OC(COC(=O)c3cccc(I)c3)C(OC3OC4COC(c5ccccc5)OC4C(O)C3O)C(O)C2O)ccc1Cl [Example 44, N-{5-[(4′,6′-O-Benzylidene-6-O-(3-iodo)-benzoyl-β-D-maltosyl)-oxy-methyl]-2-chloro-phenyl}-acetamide] | 62
16 | O=C(OCC1OC(OCc2ccc(Cl)cc2)C(O)C(O)C1OC1OC2COC(c3ccccc3)OC2C(O)C1O)c1ccccc1 [Example 69, Benzoic acid 1-O-(4-chloro)-benzyl-4′,6′-O-benzylidene-6-deoxy-β-D-malto-6-yl ester] | 1530
17 | CC(=O)Nc1cc(COC2OC(COC(=O)c3ccc(I)cc3)C(OC3OC4COC(c5ccccc5)OC4C(O)C3O)C(O)C2O)ccc1Cl [Example 45, N-{5-[(4′,6′-O-Benzylidene-6-(4-iodo-benzoyl)-oxy-β-D-maltosyl)-oxy-methyl]-2-chloro-phenyl}-acetamide] | 6440
18 | CC(=O)OCC1OC(OCc2ccc(C)c(N(C(C)=O)C(C)=O)c2)C(OC(C)=O)C(OC(C)=O)C1OC1OC2COC(c3ccccc3)OC2C(OC(C)=O)C1OC(C)=O [Example 58, N-Acetyl-{5-[(2,2′,3,3′,6-penta-O-acetyl-4′,6′-O-benzylidene-β-D-maltosyl)-oxy-methyl]-2-methyl-phenyl}acetamide] | 600
19 | CC(=O)Nc1cc(COC2OC(COC(=O)c3ccccc3)C(OC3OC4COC(C)OC4C(O)C3O)C(O)C2O)ccc1Cl [Example 2, (R)-N-[5-[[[6-O-Benzoyl-4-O-(4,6-O-ethylidene-α-D-glucopyranosyl)-β-D-glucopyranosyl]oxy]methyl]-2-chlorophenyl]acetamide] | 103
20 | CC(=O)Nc1cc(COC2OC(COC(=O)c3ccc([N+](=O)[O-])cc3)C(OC3OC4COC(c5ccccc5)OC4C(O)C3O)C(O)C2O)ccc1Cl [Example 41, (R)-N-[2-Chloro-5-[[[6-O-(4-nitrobenzoyl)-4-O-[4,6O-(phenylmethylene)-α-D-glucopyranosyl]-β-D-glucopyranosyl]oxy]methyl]phenyl]acetamide] | 273
21 | CC(=O)Nc1cc(COC2OC(COC(=O)c3ccccc3)C(OC3OC4COC(Cc5ccccc5)OC4C(O)C3O)C(O)C2O)ccc1Cl [Example 17, N-{5-[(6-O-Benzoyl-4′,6′-O-((1R)-2-phenyl-ethylidene)-β-D-maltosyloxy)-methyl]-2-chloro-phenyl}-acetamide] | 35
22 | CC(=O)Nc1cc(CO[C@@H]2O[C@H](COc3ccccc3)[C@@H](O[C@H]3O[C@@H]4COC(c5ccccc5)O[C@H]4[C@H](O)[C@H]3O)[C@H](O)[C@H]2O)ccc1Cl (stereo partly drawn) [Example 60, N-{5-[(4′,6′-O-Benzylidene-6-O-phenyl-β-D-maltosyl)-oxy-methyl]-2-chloro-phenyl}-acetamide] | 38
23 | CC(=O)Nc1cc(COC2OC(COC(=O)CCCc3ccccc3)C(OC3OC4COC(c5ccccc5)OC4C(O)C3O)C(O)C2O)ccc1Cl [Example 49, N-{5-[(4′,6′-O-Benzylidene-6-O-phenyl-propyl-carboxyl-β-D-maltosyl)-oxy-methyl]-2-chloro-phenyl}-acetamide] | 104
24 | C=CCCC(=O)Nc1cc(CO[C@@H]2O[C@H](COC(=O)c3ccccc3)[C@@H](O[C@H]3O[C@@H]4COC(c5ccccc5)O[C@H]4[C@H](O)[C@H]3O)[C@H](O)[C@H]2O)ccc1Cl (stereo partly drawn) [Example 66, N-{2-Chloro-5-[(6-O-benzoyl-4′,6′-O-benzilidene-β-D-maltosyl)-oxy-methyl]-phenyl}-pent-4-enamide] | 180
25 | CC(NC(=O)OCC1c2ccccc2-c2ccccc21)C(=O)Nc1cc(COC2OC(COC(=O)c3ccccc3)C(OC3OC4COC(c5ccccc5)OC4C(O)C3O)C(O)C2O)ccc1Cl [Example 76, N-(9H-Fluoren-9ylmethoxycarbonyl)-N′-{5-[(6-O-benzoyl-4′,6′-O-benzylidene-β-D-maltosyl)-oxy-methyl]-2-chloro-phenyl}-L-alaninamide] | 156
26 | CC(=O)Nc1cc(COC2OC(COC(=O)c3cccc(C(F)(F)F)c3)C(OC3OC4COC(c5ccccc5)OC4C(O)C3O)C(O)C2O)ccc1Cl [Example 42, (R)-N-[2-Chloro-5-[[[6-O-(3-trifluoromethylbenzoyl)-4-O-[4,6O-(phenyl-methylene)-α-D-glucopyranosyl]-β-D-glucopyranosyl]oxy]methyl]phenyl]acetamide] | 27
